Reference: patent publication US10947239B2, “[1,2,4]triazolo[1,5-a]pyrimidin-7-yl compound” (Janssen Pharmaceutica NV, priority 2015, dated 2021)

Assays:
[1] = biological target: Human recombinant PDE2A (hPDE2A) (Homo sapiens (Human), UniProt O00408); assay: In vitro assay PDE2A (SPA, 3H-cGMP); format: biochemical
Method: Human recombinant PDE2A (hPDE2A) was expressed in Sf9 cells using a recombinant […] baculovirus construct. […] Tested compounds were dissolved and diluted in 100% DMSO to a concentration 100 fold of the final concentration in the assay. Compound dilutions (0.4 μl) were added in 384 well plates to 20 μl of incubation buffer (50 mM Tris pH 7.8, 8.3 mM MgCl2, 1.7 mM EGTA). […] of hPDE2A enzyme in incubation buffer was added and the reaction was started by addition of 10 μl substrate to a final concentration of 10 μM cGMP and 0.01 μCi ^3H-cGMP. The reaction was incubated for 45 minutes at room temperature. […] After sedimentation of the beads during 30 minutes the radioactivity was measured in a Perkin Elmer Topcount scintillation counter and results were expressed as cpm. For blanc values the enzyme was omitted from the reaction and replaced by incubation buffer. Control values were obtained by addition of a final concentration of 1% DMSO instead of compound.

[2] = biological target: Human recombinant PDE3A (hPDE3A) (Homo sapiens, UniProt Q14432); assay: In vitro assay PDE3A (SPA, 3H-cAMP); format: biochemical; settings: −log IC50 expressed in mol/L; method describes hPDE3A
Method: Human recombinant PDE3A (hPDE3A) was supplied as a partially purified insect cell lysate by Scottish Biomedical, it was cloned from human brain and expressed in Sf9 cells. Tested compounds were dissolved and diluted in 100% DMSO to a concentration 100 fold of the final concentration in the assay. Compound dilutions (0.4 μl) were added in 384 well plates to 20 μl of incubation buffer (50 mM Tris pH 7.8, 8.3 mM MgCl2, 1.7 mM EGTA). 10 μl of hPDE3A enzyme in incubation buffer was added and the reaction was started by addition of 10 μl substrate to a final concentration of 0.4 μM cAMP and 2.4 μCi/ml [^3H]-cAMP. The reaction was incubated for 60 min at room temperature. After incubation, the reaction was stopped with 20 μl of stop solution consisting of 17.8 mg/ml PDE SPA (scintillation proximity assay) beads supplemented with 200 mM ZnCl2. After sedimentation of the beads during 30 min the radioactivity was measured in a Perkin Elmer Topcount scintillation counter and results were expressed as cpm. For blanc values the enzyme was omitted from the reaction and replaced by incubation buffer. Control values were obtained by addition of a final concentration of 1% DMSO instead of compound. […]

[3] = biological target: Rat recombinant PDE10A (rPDE10A2) (Rattus norvegicus (Rat), UniProt Q9QYJ6); assay: In vitro assay PDE10A (SPA, 3H-cAMP); format: biochemical; settings: −log IC50 expressed in mol/L
Method: Rat recombinant PDE10A (rPDE10A2) was expressed in Sf9) cells using a recombinant rPDE10A baculovirus construct. Cells were harvested after 48 h of infection and the rPDE10A protein was purified by metal chelate chromatography on Ni-sepharose 6FF. Tested compounds were dissolved and diluted in 100% DMSO to a concentration 100 fold of the final concentration in the assay. Compound dilutions (0.4 μl) were added in 384 well plates to 20 μl of incubation buffer (50 mM Tris pH 7.8, 8.3 mM MgCl2, 1.7 mM EGTA). 10 μl of rPDE10A enzyme in incubation buffer was added and the reaction was started by addition of 10 μl substrate to a final concentration of 60 nM cAMP and 0.008 μCi ^3H-cAMP. The reaction was incubated for 60 minutes at room temperature. After incubation, the reaction was stopped with 20 μl of stop solution consisting of 17.8 mg/ml PDE SPA (scintillation proximity assay) beads. After sedimentation of the beads during 30 minutes the radioactivity was measured in a Perkin Elmer Topcount scintillation counter and results were expressed as cpm. For blanc values the enzyme was omitted from the reaction and replaced by incubation buffer. Control values were obtained by addition of a final concentration of 1% DMSO instead of compound. […]

Marshall Beagle dogs = assay: Single dose PK/PD PDE2i dog study; format: in vivo
Excerpt: For these studies male and female Marshall Beagle dogs (1-6 y) were used: 2 males and 2 females per treatment group. Cerebrospinal fluid (CSF) was sampled from the lateral ventricle via a needle guide cannula in instrumented conscious animals.
Baseline CSF and blood samples were taken 2 to 5 days before dosing. The dogs are fasted overnight and the next morning dosed on an empty stomach (orally by gavage). At predetermined time points after dosing blood and/or CSF was collected for the measurement of compound levels and cGMP. Analysis of cGMP was done by LCMS/MS: 25 μl CSF was diluted with 125 μl artificial CSF (STIL (20 ng/ml)), centrifugated and 25 μl was injected. The systems used were: a Shimadzu SIL-30 UPLC-system (Hypercarb (50 mm×1 mm (3 μm)) column, basic (10 mM ammonium carbonate) aqueous-acetonitrile gradient (5% to 98% in 5.5 minutes) at a flow-rate of 250 μl/min) and an API Sciex 5500 system equiped with an ESI source (selective MRM transition (m/z 346.1→152.1 (75 msec dwelltime)). The results of this study are summarized in FIG. 7. After a single dose of compound 1 the following observations were made: slight to moderate tremors in 3/8 animals at 0.5 mg/kg; sedation and/or tremors in 6 out of 7 animals at 1 mg/kg (one animal was not dosed due to limited stock of the compound). […] Limited individual data in the vehicle group of PDE2 H-2 (n=2 at 1, 4 and 8 h) due to analytical errors.

[4] = system: dentate gyrus of anesthetized adult Sprague Dawley; assay: LTP / synaptic plasticity in dentate gyrus of anesthetized rats; format: in vivo, rat
[5] = 40 mg/kg SC, 90-120 min post-tetanization, relative to baseline 100%

Sequence of Human recombinant PDE2A (hPDE2A) (O00408 whole entry): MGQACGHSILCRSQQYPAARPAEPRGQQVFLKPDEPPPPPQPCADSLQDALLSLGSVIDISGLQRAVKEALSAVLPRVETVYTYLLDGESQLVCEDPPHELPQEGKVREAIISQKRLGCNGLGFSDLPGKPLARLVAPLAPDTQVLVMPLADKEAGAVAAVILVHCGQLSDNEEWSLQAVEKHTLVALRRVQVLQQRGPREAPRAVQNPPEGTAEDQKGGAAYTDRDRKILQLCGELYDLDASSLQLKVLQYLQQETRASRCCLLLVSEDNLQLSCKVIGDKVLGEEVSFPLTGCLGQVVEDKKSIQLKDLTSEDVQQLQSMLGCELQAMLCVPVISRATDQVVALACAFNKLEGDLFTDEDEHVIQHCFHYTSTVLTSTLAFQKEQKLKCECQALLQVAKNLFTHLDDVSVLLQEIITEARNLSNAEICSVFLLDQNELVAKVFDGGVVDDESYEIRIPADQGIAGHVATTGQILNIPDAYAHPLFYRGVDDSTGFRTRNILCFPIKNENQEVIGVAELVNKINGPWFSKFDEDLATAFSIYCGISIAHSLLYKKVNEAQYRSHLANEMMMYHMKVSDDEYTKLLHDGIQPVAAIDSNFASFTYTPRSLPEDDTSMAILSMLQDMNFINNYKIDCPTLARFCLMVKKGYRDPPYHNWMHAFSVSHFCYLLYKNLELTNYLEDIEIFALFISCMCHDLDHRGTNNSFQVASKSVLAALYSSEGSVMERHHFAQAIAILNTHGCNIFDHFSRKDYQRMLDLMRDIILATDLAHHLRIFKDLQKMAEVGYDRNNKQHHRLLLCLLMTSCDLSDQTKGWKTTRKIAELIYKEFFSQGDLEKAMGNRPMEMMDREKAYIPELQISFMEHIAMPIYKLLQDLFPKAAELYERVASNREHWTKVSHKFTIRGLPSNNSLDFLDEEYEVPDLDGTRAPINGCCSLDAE
Sequence of Rat recombinant PDE10A (rPDE10A2) (Q9QYJ6 whole entry): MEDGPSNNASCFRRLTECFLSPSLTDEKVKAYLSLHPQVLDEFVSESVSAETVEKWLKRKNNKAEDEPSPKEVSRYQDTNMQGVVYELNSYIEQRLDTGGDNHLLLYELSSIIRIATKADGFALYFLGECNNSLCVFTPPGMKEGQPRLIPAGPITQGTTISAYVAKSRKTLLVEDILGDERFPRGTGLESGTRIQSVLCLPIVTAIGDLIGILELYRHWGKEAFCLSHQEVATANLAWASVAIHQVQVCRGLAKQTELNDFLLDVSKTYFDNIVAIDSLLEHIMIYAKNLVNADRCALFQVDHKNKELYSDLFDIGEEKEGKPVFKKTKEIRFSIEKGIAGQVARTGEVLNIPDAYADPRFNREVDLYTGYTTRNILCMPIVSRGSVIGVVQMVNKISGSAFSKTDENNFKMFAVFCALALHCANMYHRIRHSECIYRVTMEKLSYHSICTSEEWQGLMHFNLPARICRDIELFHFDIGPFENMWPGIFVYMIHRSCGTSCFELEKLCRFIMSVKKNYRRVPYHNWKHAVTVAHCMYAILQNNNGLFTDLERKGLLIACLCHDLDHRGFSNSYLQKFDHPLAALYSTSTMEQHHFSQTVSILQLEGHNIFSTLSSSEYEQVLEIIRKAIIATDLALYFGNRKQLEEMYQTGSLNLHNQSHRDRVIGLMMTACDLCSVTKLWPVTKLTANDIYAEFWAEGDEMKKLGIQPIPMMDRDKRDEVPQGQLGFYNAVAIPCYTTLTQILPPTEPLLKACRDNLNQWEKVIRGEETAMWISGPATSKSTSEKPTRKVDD
Sequence of Human recombinant PDE3A (hPDE3A) (Q14432 whole entry, looked up): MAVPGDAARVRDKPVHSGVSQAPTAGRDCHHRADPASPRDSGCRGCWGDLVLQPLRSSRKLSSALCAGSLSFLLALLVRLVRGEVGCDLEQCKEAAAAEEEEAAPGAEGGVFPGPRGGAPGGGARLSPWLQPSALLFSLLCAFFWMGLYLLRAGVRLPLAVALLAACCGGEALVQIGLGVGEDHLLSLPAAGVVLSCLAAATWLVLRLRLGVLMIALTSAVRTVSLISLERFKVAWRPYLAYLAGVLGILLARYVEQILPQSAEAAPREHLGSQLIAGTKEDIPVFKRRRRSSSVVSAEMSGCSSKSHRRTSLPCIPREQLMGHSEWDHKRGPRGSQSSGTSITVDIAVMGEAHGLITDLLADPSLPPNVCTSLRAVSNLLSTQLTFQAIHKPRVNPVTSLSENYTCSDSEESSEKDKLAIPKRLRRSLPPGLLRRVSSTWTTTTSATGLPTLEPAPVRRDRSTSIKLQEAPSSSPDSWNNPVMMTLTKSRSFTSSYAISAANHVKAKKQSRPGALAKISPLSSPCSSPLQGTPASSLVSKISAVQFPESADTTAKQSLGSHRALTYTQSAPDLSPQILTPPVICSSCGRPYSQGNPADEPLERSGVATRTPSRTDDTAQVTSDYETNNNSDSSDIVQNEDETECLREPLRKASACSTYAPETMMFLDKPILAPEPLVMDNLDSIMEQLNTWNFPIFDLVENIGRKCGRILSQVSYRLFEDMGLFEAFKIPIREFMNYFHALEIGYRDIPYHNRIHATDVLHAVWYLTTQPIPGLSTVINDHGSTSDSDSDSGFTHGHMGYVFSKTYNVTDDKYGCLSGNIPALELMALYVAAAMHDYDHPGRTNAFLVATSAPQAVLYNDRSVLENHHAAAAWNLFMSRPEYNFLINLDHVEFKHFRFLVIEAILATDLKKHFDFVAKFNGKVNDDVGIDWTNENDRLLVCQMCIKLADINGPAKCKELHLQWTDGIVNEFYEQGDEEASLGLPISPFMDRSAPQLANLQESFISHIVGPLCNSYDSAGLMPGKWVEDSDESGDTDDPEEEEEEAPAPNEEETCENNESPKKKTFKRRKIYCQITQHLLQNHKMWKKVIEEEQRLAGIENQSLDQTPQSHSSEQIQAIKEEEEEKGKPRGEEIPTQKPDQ

## Cc1cc(C(=O)N2CC[C@@H](C)[C@H](c3cc(C(F)F)nc4ncnn34)C2)cc(C)n1 [Compound 1]
[1]; hPDE2A, 10 μM cGMP
  IC50: 0.95 nM
[1]; −log IC50 expressed in mol/L
  pIC50 (PDE2A): 9.07
[2]
  pIC50 PDE3B: 5.21
[3]
  pIC50 PDE10A2: 7.06
Marshall Beagle dogs; single oral dose
  Plasma pharmacokinetics dose linearity: non-dose linearity
Marshall Beagle dogs; single oral dose 0.5 mg/kg
  slight to moderate tremors: 3/8
Marshall Beagle dogs; single oral dose 1 mg/kg
  sedation and/or tremors: 6 out of 7
Marshall Beagle dogs; single oral dose, CSF from lateral ventricle
  cGMP in the CSF: dose related increase
[4]; 40 mg/kg SC, 0-30 min after tetanization, relative to baseline 100%
  PSA slopes: 164±13%
[4]; [5]
  PSA amplitude: 179±20%
  fEPSP slope: 137±24%
[4]; 40 mg/kg SC, LTP induction paradigm
  duration of enhanced synaptic potentiation: > 2 h
[4]; baseline pre-tetanus, versus vehicle-treated control
  Basal synaptic transmission: not affected
[4]; overall conclusion
  LTP in vivo: facilitates LTP in vivo
